According to patent US8822517B2, “Arylosulfonamides for the treatment of CNS diseases” (Adamed SP. Z O.O., priority 2010, dated 2014):
Read-outs that look alike come from different tables or passages of the source.

What was measured:
dopaminergic D3 receptor = dopaminergic D3 receptor (Homo sapiens, UniProt P35462); assay: Binding assay D3 (h), [3H]methyl-spiperone, CHO cells; design: expressed in transfected cells; host or cells: CHO cells; settings: read-out: D3 [%]
How it was run: (§1)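 Scintillation counting detects receptor-bound radioligand. Compound tested at 1×10^−6 M.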

[1] = target: serotoninergic 5-HT2A receptor (Homo sapiens, UniProt P28223); assay: Binding assay 5-HT2A (h), [3H]ketanserin, HEK-293 cells; design: expressed in transfected cells; host or cells: HEK-293 cells; settings: read-out: 5-HT2A
How it was run: as §1

hERG potassium channels = hERG potassium channels (Homo sapiens, UniProt Q12809); assay: hERG potassium channel block, electrophysiology (IonWorks Quattro), CHO cells
Description: Ability to block hERG potassium channels was determined using the electrophysiological method and cloned hERG potassium channels (KCNH2 gene, expressed in CHO cells) as biological material. The effects were evaluated using IonWorks™ Quattro system (MDS-AT).
hERG current was elicited using a pulse pattern with fixed amplitudes (conditioning prepulse: −80 mV for 25 ms; test pulse: +40 mV for 80 ms) from a holding potential of 0 mV. hERG current was measured as a difference between the peak current at 1 ms after the test step to +40 mV and the steady-state current at the end of the step to +40 mV.
Data acquisition and analyses was performed using the IonWorks Quattro™ system operation software (version 2.0.2; Molecular Devices Corporation, Union City, Calif.). Data were corrected for leak current.

adrenergic α2C receptor [2] = target: T1, adrenergic α2C receptor (Homo sapiens, UniProt P18825); assay: Cellular functional assay, adrenergic α2C receptor (agonism/antagonism); assay type: cell-based; settings: for activation at 1 µM: agonist effect, percent of control specific agonist response, compounds tested at 1×10^−6M, read-out: α2C −ag [%]; for inhibition at 1 µM: read-out: α2C −antag. [%]
T1 sequence (P18825 1-462): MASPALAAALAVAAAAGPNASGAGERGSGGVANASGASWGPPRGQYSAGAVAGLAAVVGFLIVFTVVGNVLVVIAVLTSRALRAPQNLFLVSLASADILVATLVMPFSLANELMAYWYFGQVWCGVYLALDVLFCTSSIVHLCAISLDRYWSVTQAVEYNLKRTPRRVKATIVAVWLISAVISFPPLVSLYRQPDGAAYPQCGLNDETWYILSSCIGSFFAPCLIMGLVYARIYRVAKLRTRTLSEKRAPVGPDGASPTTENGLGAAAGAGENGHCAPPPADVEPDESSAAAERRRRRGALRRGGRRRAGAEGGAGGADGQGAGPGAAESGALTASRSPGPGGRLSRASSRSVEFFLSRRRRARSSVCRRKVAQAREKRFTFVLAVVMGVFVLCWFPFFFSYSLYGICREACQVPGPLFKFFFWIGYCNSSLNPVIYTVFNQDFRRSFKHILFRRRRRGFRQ
Description: (§2) The compounds were tested at the concentration of 1×10^−6M.
(§3) In the Tables ag refers to agonism, and antag to antagonism).

adrenergic α2C receptor [3] = target: T1, adrenergic α2C receptor; assay: Binding assay α2C (h), [3H]RX 821002, CHO cells; design: expressed in transfected cells; host or cells: CHO cells; settings: read-out: α2C [%]
How it was run: as §1

[4] = target: serotoninergic 5-HT6 receptor (Homo sapiens, UniProt P50406); assay: Binding assay 5-HT6 (h), [3H]LSD, CHO cells; design: expressed in transfected cells; host or cells: CHO cells; settings: read-out: 5-HT6
How it was run: as §1

sigma σ receptor = assay: Binding assay σ (non-selective), [3H]DTG, rat cerebral cortex; settings: percent inhibition of control specific binding; compounds tested at 1×10^−6 M
How it was run: as §1

muscarinic M3 receptor = target: T2, muscarinic M3 receptor (Homo sapiens, UniProt P20309); assay: Binding assay M3 (h), [3H]4-DAMP, CHO cells; settings: read-out: M3 [%]
T2 construct: expressed in transfected cells; host or cells: CHO cells
How it was run: as §1

dopaminergic D2 receptor = dopaminergic D2 receptor (Homo sapiens, UniProt P14416); assay: Binding assay D2S (h), [3H]methyl-spiperone, HEK-293 cells; design: expressed in transfected cells; host or cells: HEK-293 cells; settings: read-out: D2 [%]
How it was run: as §1

[5] = target: T3, serotoninergic 5-HT1A receptor (Homo sapiens, UniProt P08908); assay: Binding assay 5-HT1A (h), [3H]8-OH-DPAT, HEK-293 cells; design: expressed in transfected cells; host or cells: HEK-293 cells; settings: read-out: 5-HT1A
T3 sequence (P08908 1-422): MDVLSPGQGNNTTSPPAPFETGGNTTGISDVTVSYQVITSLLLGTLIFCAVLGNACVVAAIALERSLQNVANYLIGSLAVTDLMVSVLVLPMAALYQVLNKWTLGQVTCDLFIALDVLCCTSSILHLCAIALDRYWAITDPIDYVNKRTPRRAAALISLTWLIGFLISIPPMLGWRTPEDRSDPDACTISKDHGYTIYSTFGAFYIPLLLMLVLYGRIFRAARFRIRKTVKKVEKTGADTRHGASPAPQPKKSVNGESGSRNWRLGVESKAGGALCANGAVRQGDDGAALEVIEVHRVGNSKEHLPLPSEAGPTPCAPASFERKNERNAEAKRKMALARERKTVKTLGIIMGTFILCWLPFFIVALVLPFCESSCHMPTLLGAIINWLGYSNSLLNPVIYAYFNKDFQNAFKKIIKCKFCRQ
How it was run: as §1

[6] = target: T4, histaminergic H1 receptor (Homo sapiens, UniProt P35367); assay: Binding assay H1 (h), [3H]pyrilamine, HEK-293 cells; design: expressed in transfected cells; host or cells: HEK-293 cells; settings: read-out: H1 [%]
How it was run: as §1

adrenergic α1 receptor = assay: Binding assay α1 (non-selective), [3H]prazosin, rat cerebral cortex; settings: percent inhibition of control specific binding; compounds tested at 1×10^−6 M
How it was run: as §1

[7] = target: T4, histaminergic H1 receptor; assay: Cellular functional assay, histaminergic H1 receptor (agonism/antagonism); assay type: cell-based; settings: for activation at 1 µM: agonist effect, percent of control specific agonist response, compounds tested at 1×10^−6M, read-out: H1 -ag [%]; for inhibition at 1 µM: read-out: H1 -antag. [%]
Description: as §2, §3

[8] = % block of hERG current, cloned hERG channels in CHO cells, IonWorks Quattro

serotoninergic 5-HT6 receptor, sequence (P50406 whole entry): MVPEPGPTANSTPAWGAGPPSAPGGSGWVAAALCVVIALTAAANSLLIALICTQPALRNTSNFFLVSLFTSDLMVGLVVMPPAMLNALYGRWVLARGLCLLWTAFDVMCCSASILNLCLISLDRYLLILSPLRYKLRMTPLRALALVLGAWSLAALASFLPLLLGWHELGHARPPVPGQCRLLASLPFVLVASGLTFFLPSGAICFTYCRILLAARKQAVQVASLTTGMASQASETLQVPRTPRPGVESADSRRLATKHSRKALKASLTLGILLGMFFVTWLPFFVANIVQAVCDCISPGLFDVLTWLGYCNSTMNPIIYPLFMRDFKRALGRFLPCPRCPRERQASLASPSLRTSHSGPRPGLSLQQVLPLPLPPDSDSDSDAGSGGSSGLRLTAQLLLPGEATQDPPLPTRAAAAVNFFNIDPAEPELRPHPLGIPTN
T2 sequence (P20309 whole entry): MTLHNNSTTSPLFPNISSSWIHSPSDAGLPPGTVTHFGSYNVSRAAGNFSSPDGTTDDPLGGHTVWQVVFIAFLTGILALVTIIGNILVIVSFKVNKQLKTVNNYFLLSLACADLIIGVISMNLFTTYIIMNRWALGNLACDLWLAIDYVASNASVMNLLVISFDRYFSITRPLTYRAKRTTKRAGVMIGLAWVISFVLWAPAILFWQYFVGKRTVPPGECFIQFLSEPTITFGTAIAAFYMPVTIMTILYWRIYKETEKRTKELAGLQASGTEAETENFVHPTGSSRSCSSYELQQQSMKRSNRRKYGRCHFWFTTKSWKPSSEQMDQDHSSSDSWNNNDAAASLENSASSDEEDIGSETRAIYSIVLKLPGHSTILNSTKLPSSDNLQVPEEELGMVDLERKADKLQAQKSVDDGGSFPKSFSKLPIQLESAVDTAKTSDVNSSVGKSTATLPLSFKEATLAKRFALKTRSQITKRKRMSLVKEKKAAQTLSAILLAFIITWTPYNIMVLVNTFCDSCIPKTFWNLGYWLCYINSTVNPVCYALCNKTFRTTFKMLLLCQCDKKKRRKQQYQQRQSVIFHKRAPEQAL
dopaminergic D2 receptor, sequence (P14416 1-414 isoform P14416-2): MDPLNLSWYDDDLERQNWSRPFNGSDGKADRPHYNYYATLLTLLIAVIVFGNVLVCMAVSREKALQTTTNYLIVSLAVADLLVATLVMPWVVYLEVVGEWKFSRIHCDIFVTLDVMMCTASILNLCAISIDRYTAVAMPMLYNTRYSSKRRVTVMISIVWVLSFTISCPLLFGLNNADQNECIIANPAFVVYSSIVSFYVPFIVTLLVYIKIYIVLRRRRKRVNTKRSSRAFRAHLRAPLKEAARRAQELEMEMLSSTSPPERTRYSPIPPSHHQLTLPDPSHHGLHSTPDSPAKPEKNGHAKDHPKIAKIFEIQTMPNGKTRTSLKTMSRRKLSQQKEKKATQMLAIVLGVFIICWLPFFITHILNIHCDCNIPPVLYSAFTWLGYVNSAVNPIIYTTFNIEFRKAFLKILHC
hERG potassium channels, sequence (Q12809 whole entry): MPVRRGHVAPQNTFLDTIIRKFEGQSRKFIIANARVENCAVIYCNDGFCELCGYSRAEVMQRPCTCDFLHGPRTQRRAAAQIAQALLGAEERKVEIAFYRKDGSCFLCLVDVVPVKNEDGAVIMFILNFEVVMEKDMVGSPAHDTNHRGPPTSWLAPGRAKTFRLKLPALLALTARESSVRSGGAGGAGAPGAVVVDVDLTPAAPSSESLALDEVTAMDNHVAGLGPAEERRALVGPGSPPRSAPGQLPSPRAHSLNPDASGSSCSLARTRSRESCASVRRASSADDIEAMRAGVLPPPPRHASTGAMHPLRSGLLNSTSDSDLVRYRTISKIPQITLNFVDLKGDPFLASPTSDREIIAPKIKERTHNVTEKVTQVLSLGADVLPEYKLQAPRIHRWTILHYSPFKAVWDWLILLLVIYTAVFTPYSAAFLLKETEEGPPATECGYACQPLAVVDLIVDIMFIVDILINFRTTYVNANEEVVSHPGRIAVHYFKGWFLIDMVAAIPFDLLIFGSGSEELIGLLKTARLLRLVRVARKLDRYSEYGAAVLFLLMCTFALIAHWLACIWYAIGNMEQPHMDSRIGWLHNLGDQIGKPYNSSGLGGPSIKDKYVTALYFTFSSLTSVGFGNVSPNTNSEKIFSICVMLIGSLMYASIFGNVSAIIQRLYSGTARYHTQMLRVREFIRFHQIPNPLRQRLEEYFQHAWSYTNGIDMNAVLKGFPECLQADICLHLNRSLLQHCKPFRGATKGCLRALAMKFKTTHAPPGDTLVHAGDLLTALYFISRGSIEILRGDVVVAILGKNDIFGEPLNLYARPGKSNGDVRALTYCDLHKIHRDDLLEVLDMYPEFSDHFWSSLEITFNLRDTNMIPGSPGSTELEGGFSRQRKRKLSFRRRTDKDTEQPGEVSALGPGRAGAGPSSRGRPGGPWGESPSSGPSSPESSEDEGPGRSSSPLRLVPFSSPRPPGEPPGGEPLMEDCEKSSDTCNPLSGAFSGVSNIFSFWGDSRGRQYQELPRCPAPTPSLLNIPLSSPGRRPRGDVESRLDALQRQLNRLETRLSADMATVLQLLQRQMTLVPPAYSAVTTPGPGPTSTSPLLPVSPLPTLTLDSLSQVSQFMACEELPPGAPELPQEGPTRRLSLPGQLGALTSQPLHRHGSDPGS
T4 sequence (P35367 whole entry): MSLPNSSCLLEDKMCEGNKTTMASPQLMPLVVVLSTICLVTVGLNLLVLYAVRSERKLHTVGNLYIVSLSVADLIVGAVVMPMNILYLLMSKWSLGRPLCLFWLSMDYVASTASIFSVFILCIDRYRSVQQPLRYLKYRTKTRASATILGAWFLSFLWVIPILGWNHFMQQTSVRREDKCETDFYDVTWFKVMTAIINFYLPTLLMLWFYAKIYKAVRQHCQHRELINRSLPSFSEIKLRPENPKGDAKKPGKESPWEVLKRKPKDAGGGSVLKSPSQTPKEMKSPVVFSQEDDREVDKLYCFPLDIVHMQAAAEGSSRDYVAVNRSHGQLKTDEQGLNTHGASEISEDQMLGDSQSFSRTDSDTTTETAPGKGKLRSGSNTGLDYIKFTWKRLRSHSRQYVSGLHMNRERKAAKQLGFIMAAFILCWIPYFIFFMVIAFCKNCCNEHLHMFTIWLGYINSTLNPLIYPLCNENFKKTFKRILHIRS
dopaminergic D3 receptor, sequence (P35462 whole entry): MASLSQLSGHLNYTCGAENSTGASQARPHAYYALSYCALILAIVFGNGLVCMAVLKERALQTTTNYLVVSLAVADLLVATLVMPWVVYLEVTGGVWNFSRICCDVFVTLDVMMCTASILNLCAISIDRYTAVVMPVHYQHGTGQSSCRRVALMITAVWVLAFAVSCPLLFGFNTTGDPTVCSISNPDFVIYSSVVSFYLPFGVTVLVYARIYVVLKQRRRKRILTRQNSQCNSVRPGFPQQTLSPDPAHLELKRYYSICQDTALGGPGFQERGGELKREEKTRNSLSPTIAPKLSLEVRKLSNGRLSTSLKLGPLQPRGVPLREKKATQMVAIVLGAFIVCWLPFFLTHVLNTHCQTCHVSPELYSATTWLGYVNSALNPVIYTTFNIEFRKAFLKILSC
serotoninergic 5-HT2A receptor, sequence (P28223 whole entry): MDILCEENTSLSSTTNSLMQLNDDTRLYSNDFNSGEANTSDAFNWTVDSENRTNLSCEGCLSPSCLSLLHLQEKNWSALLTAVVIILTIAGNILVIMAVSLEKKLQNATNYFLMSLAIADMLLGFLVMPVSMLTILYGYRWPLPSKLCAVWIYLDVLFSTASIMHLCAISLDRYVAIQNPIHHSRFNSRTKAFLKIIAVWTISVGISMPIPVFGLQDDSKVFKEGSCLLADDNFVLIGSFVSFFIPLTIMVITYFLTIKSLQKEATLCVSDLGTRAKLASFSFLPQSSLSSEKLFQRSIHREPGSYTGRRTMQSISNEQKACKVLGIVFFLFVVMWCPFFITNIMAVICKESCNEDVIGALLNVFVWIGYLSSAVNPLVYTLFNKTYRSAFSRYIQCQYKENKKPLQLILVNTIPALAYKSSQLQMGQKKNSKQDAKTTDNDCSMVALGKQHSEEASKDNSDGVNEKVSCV

| SMILES | inhibition at 1 µM (dopaminergic D3 receptor) [%] | inhibition at 1 µM [1] [%] | hERG [%] (hERG potassium channels; [8]) | activation at 1 µM (adrenergic α2C receptor [2]) [%] | inhibition at 1 µM (adrenergic α2C receptor [2]) [%] | inhibition at 1 µM (adrenergic α2C receptor [3]) [%] | inhibition at 1 µM [4] [%] | σ [%] (sigma σ receptor) | inhibition at 1 µM (muscarinic M3 receptor) [%] | inhibition at 1 µM (dopaminergic D2 receptor) [%] | inhibition at 1 µM [5] [%] | inhibition at 1 µM [6] [%] | α1 [%] (adrenergic α1 receptor) | hERG [%] (hERG potassium channels) | activation at 1 µM [7] [%] | inhibition at 1 µM [7] [%] |
| --- | --- | --- | --- | --- | --- | --- | --- | --- | --- | --- | --- | --- | --- | --- | --- | --- |
| Cc1cccc(S(=O)(=O)NCCCN2CCC(c3noc4cc(F)ccc34)CC2)c1 [Compound 22, N-[3-[4-(6-Fluoro-1,2-benzoxazol-3-yl)piperidin-1-yl]propyl]-3-methylbenzenesulphonamide] | 96 | 99 | 52 | -8 | 12 | 100 | 99 | 92 | 12 | 96 | 75 | 88 | 100 |  |  |  |
| O=S(=O)(NCCCCN1CCN(c2cccc3[nH]ccc23)CC1)c1ccc2cc(Cl)ccc2c1 [Compound 358, 6-Chloro-N-[4-[4-(1H-indol-4-yl)piperazin-1-yl]butyl]naphthalene-2-sulphonamide] | 99 | 99 | 0 | 28 | 48 | 101 | 70 | 84 | 17 | 96 | 100 | 74 | 88 |  |  |  |
| O=S(=O)(NCCCCN1CCN(c2cccc3[nH]ccc23)CC1)c1cccc(Cl)c1 [Compound 113, N-[4-[4-(1H-Indol-4-yl)piperazin-1-yl]butyl]-3-chlorobenzenesulphonamide] | 99 | 69 | 16 | 13 | 53 | 99 | 74 | 92 | 29 | 98 | 100 | 60 | 99 |  |  |  |
| Cc1cccc(S(=O)(=O)NCCCCN2CCN(c3nsc4ccccc34)CC2)c1 [Compound 3, N-(4-(4-(1,2-Benzothiazol-3-yl)piperazin-1-yl)butyl)-3-methylbenzenesulphonamide] | 98 | 100 |  |  |  | 99 | 83 | 66 | 13 | 96 | 98 | 94 | 100 | 17 |  |  |
| O=S(=O)(NCCCCN1CCN(c2noc3ccccc23)CC1)c1ccc2cc(Cl)ccc2c1 [Compound 79, N-[4-[4-(1,2-Benzoxazol-3-yl)piperazin-1-yl]butyl]-6-chloro-naphthalene-2-sulphonamide] | 96 | 91 |  | 7 | 22 | 106 | 97 | 37 | 12 | 99 | 84 | 96 | 88 |  | 0 | 57 |
| O=S(=O)(NCCCCN1CCC(c2noc3cc(F)ccc23)CC1)c1ccc2ccccc2c1 [Compound 18, N-[4-[4-(6-Fluoro-1,2-benzoxazol-3-yl)piperidin-1-yl]butyl]naphthalene-2-sulphonamide] | 98 | 100 | 30 | -10 | 28 | 100 | 100 |  | 6 | 98 | 81 | 79 |  |  |  |  |
| O=S(=O)(NCCCCN1CCN(c2nsc3ccccc23)CC1)c1cc2ccc(Cl)cc2s1 [Compound 241, N-[4-[4-(1,2-Benzothiazol-3-yl)piperazin-1-yl]butyl]-6-chlorobenzothiophene-2-sulphonamide] | 97 | 101 |  | -1 | 14 | 98 | 96 | 51 | 4 | 100 | 98 | 97 | 93 |  | 1 | 47 |
| Cc1c(S(=O)(=O)NCCCN2CCC(c3noc4cc(F)ccc34)CC2)sc2ccc(F)cc12 [Compound 102, 5-Fluoro-N-[3-[4-(6-fluoro-1,2-benzoxazol-3-yl)piperidin-1-yl]propyl]-3-methylbenzothiophene-2-sulphonamide] | 103 | 101 |  | -7 | 14 | 101 | 97 | 74 | 18 | 100 | 92 | 94 | 99 |  | 0 | 48 |
| O=S(=O)(NCCCCN1CCN(c2noc3ccccc23)CC1)c1ccc(-c2ccccc2)cc1 [Compound 283, N-[4-[4-(1,2-Benzoxazol-3-yl)piperazin-1-yl]butyl]-4-phenylbenzenesulphonamide] | 101 | 103 |  | 2 | 25 | 109 | 96 | 34 | -4 | 99 | 89 | 96 | 92 |  | 0 | 41 |
| O=S(=O)(NCCCCN1CCC(c2noc3cc(F)ccc23)CC1)c1ccc2cc(Cl)ccc2c1 [Compound 97, 6-Chloro-N-[4-[4-(6-fluoro-1,2-benzoxazol-3-yl)piperidin-1-yl]butyl]naphthalene-2-sulphonamide] | 100 | 100 |  | -4 | 36 | 100 | 98 | 55 | 16 | 100 | 75 | 91 | 98 |  | 3 | 57 |
